Results reported in US12162997B2, “Facile assembly of soft nanoarchitectures and co-loading of hydrophilic and hydrophobic molecules via flash nanoprecipitation” (Northwestern University, priority 2016, dated 2024).
Where two headings read alike, the source gives them in different places.

Columns and labels:
[1] = Loading efficiency of cargo into polymersomes by fluorescence; assay type: physicochemical; conditions: FNP, single cargo, FIG. 4A
Procedure: The loading efficiency of the target molecule in the nanocarriers by the methods of the present invention is measured as the ratio of target molecule encapsulated within the nanocarrier to the total amount of target molecule available for loading in the initial solution. The loading efficiency is typically greater than about 40% for both proteins and hydrophobic molecules (i.e., […], about 40%, about 45%, about 50%, about 60%, about 70%, about 80%, about 85%, about 90%, or any percentages in between). In some embodiments of the invention, the loading efficiency is greater than at least 45%.
Nanocarriers were formed using the confined impingement jets (CIJ) mixer described by Han et al. PEG-bl-PPS copolymers and hydrophobic molecules to be loaded within polymersomes were dissolved in 500 μL of tetrahydrofuran (THF) and placed into a 1 mL plastic disposable syringe. […] For fluorescence measurements, samples were taken both before and after column purification to assess loading efficiency. […]
Fluorescence and absorbance measurements were taken on a SpectraMax M3 microplate reader (Molecular Devices). All readings were taken in black-walled clear bottom 96-well plates (Corning 07-200-567), at 100 μL volumes. All readings were normalized to a 100 μL 1×PBS blank control. […] NBT diformazan was detected via absorbance at 620 nm.

[2] = ZINC15 database, cited from earlier work

Row | loading efficiency into polymersomes [1] | SMILES | logP Values [2] | logP Values ([2]; listed as calcein)
1 | very high loading efficiencies | CCOC(=O)c1ccccc1-c1c2cc(Br)c(=O)c(Br)c-2oc2c(Br)c([O-])c(Br)cc12.[K+] [Ethyl Eosin, ethyl eosin] | – | –
2 | – | CO[C@H]1C[C@@H]2CC[C@@H](C)[C@@](O)(O2)C(=O)C(=O)N2CCCC[C@H]2C(=O)O[C@H]([C@H](C)C[C@@H]2CC[C@@H](O)[C@H](OC)C2)CC(=O)[C@H](C)/C=C(\C)[C@@H](O)[C@@H](OC)C(=O)[C@H](C)C[C@H](C)/C=C/C=C/C=C/1C [Rapamycin, rapamycin] | 6.181 | –
3 | lowest loading efficiency | O=C(O)CN(CC(=O)O)Cc1cc2c(cc1O)Oc1cc(O)c(CN(CC(=O)O)CC(=O)O)cc1C21OC(=O)c2ccccc21 [Calcein, calcein] | 1.608 | 1.6
